Experimental data: patent US20120329860A1, “Uses of Beta-Nicotinamide Adenine Dinucleotide” (MEDICAL COLLEGE OF GEORGIA INSTITUTE, INC, priority 2010, published 2012)

What was measured:
[1] = test system: VE-cadherin-positive cell-cell junctions in HPAEC; assay: VE-cadherin immunofluorescence of HPAEC monolayers; type: cell-based, human; settings: 50 μM b-NAD, 30 minutes
Method: Immunostaining was performed as described (Kolosova et al., 2005, Circ Res 97(2):115-124). The DNA-binding, fluorescent dye 7-amino-actinomycin D (7AAD) was used to stain cell nuclei. The percentage of total cell surface area occupied by VE-cadherin-positive cell-cell junctions was quantitatively determined using Zeiss Microscope quantification Software.

LPS-induced ALI in mice = assay: BAL total protein in LPS-induced lung injury; type: in vivo; settings: β-NAD (i.v.) simultaneously with LPS (i.t.), 18 hr
Method: Female C57BL/6J mice (8-10 weeks old) weighing 20-25 g were purchased from Charles River Laboratory (Wilmington, Mass.). Animals were housed in plastic cages and had access to food and water. The animals were kept at room temperature and exposed to continuous cycles of 12 hr light and darkness.
Mice were anesthetized with ketamine (150 mg/kg) and acetylpromazine (15 mg/kg) intraperitoneally (i.p.) before the exposure of the trachea via neck incision and intubation with 20-guage catheter and the right internal jugular vein was exposed via right chest incision for PBS or b-NAD installation. The mice were randomly divided into groups. […] Simultaneously, mice received either b-NAD (5.4 mg/kg, equivalent to final calculated plasma concentration […] or PBS in the control group intravenously (i.v.) through the internal jugular vein (IJ). The animals were allowed to recover for 18 hr. EBD was given through the IJ 2 hr prior to termination of the experiment. At termination, bronchoalveolar lavage (BAL) was collected. BAL was 1ml of 10% HBSS through the endotracheal catheter immediately on sacrifice with aspiration. BAL was immediately centrifuged and processed. After the BAL, ethylenediaminetetraacetic acid (EDTA) was used to flush the lungs of blood via the right heart ventricle and the lungs were then harvested. […]

[2] = test system: LPS-induced mortality in mice; assay: LPS-induced mortality / survival; type: in vivo
Method: Mice were injected with β-NAD (100 mg/kg, i.p) or vehicle (saline, i.p) 10 min after LPS (20 mg/kg, i.p) challenge. As a treatment strategy, β-NAD was given twice a day (i.p) for 4 days. […]

SMILES: NC(=O)C1=CN([C@@H]2O[C@H](COP(=O)(O)OP(=O)(O)OC[C@H]3O[C@@H](n4cnc5c(N)ncnc54)[C@H](O)[C@@H]3O)[C@@H](O)[C@H]2O)C=CC1 [β-NAD, beta-nicotinamide adenine dinucleotide]
- VE-cadherin recruitment to cell-cell junctions [1]: Appreciably more VE-cadherin was recruited to the area of cell-cell junctions
- percentage of total cell-surface area occupied by VE-cadherin-positive cell-cell junctions (mean) ([1]; 20 cells per group, control 17.42%): 61.03%
- LPS-induced BAL protein accumulation (LPS-induced ALI in mice): significantly attenuated
- mortality, LPS vs. LPS/β-NAD ([2]; 15 day study): significantly reduced morality
- survival after LPS challenge ([2]; LPS 20 mg/kg i.p., β-NAD 100 mg/kg i.p. twice a day, 4 days): recovered and lived longer
- survival, β-NAD alone ([2]; β-NAD alone, no LPS): no effect
